Drawing on patent US10233195B2, “Anti-fibrotic pyridinones” (InterMune, Inc., priority 2014, dated 2019), this text covers IC50 and EC50 for six compounds.

The structures appear in SMILES notation.

By IC50 is commonly meant the concentration that inhibits the measured activity by half. Low readings indicate greater potency in that assay, high ones weaker potency in that assay. The EC50 is the concentration at which the effect is half-maximal. The low end stands for higher potency in that assay, the high end for lower potency in that assay.

Assay [1] deals with Fibroblasts (primary human lung and dermal, HFL-1, 3T3 etc). Briefly: Cell proliferation assay (BrdU incorporation). The assay is classed as cell-based. Particulars: HFL1, stimulant (LPA, TGFb, serum etc), 50% inhibition of the increase of BrdU incorporation. The gist of the method: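 Serum-starved (24-48 h) fibroblasts pretreated with compound 0-30 min, then stimulated (LPA, TGFb, serum etc) for 16-24 h before BrdU, labelled a further 8 h. BrdU incorporation read by ELISA at 450 nm; IC50 taken as 50% inhibition of the stimulant-induced increase over unstimulated wells.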
(Dividing cells build labelled thymidine or BrdU into new DNA.)

The test system of assay [2] is TGF-b induced Endothelin-1 production. Description: ET-1 assay: inhibitory effect on TGF-b induced endothelin-1 production. As to conditions: Homo sapiens, Fibroblast; fibroblasts, stimulant (TGFb, serum, LPA etc), ET-1 in media by ELISA, 4-parameter fit. The assay is classed as cell-based. The gist of the method:
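Fibroblasts (primary human lung/dermal, HFL-1, 3T3) serum-starved 0-48 h, preincubated ~30 min with compound, then stimulated (TGFb, serum or LPA) for 16-48 h. Secreted ET-1 measured by ELISA; EC50 from 4-parameter logistic fit, with CC50 from ATPlite in the same wells.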
(In general: ELISA stands for enzyme-linked immunosorbent assay.)

In turn, `CCOc1ccc(-n2cc(-c3ccnnc3)c3nn(CC)nc3c2=O)c(C)c1` [Compound 685] yielded an IC50 in assay [1] of less than 50 µM. The compound further came in with an EC50 in assay [2] of less than 50 µM.
Regarding `CCOc1ccc(-n2cc(-c3cnn(C)c3)c3nn(CC)nc3c2=O)c(C)c1` [Compound 686], the IC50 in assay [1] is less than 50 µM. Further, the EC50 in assay [2] fell in the range of 50 to 200 µM.
For `Cn1cc(-c2cn(-c3ccc(OC(F)(F)F)cc3)c(=O)c3nnn(CCF)c23)cn1` [Compound 687], in that order: less than 50 µM and less than 50 µM.
The corresponding values for `CCn1nc2c(-c3cnn(C)c3)cn(-c3ccc(OCCOC)cc3)c(=O)c2n1` [Compound 688] are 50 to 200 µM and 50 to 200 µM.
On to `O=c1c2[nH]ncc2c(-c2ccc(F)cc2)cn1-c1ccc(OC(F)(F)F)cc1` [Compound 689], for which the IC50 in assay [1] was less than 50 µM. Also, the EC50 in assay [2] is less than 50 µM.
`Cc1nc2c(-c3cnn(C)c3)cn(-c3ccc(OC(F)(F)F)cc3)c(=O)c2s1` [compound 584]: the IC50 in assay [1] is less than 50 µM. The EC50 in assay [2] was less than 50 µM.
